Consider 7 compounds from ChEMBL document CHEMBL6087424, “Opportunities and Challenges of Arginase Inhibitors in Cancer: A Medicinal Chemistry Perspective” (J Med Chem, 2024).

A value given as a limit tells only on which side of the number the result lay.

Test [1] has as its target T1, Arginase-1 (Homo sapiens, UniProt P05089).
T1 sequence (P05089 whole entry): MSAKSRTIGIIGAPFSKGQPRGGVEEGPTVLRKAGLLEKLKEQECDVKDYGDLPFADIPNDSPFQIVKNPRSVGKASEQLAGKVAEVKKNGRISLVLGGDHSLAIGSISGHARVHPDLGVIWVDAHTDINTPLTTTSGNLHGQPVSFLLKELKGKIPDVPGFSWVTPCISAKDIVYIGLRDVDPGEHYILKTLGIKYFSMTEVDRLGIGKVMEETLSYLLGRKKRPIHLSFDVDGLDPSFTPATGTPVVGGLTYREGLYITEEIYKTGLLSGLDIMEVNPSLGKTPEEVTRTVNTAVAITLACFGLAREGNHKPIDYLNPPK
In words: Binding affinity to human recombinant ARG1 assessed as inhibition constant.

The target in test [2] is T1, Arginase-1. In words: Inhibition of ARG1 (unknown origin).
Test [3] concerns the target T1, Arginase-1. Nature of the test: Inhibition of N-terminal hexa-histidine full-length human ARG1 extracted from Escherichia coli BL21 (DE3) Rosetta competent cells.
Test [4] deals with T2, Arginase-2, mitochondrial (Homo sapiens, UniProt P78540).
T2 sequence (P78540 whole entry): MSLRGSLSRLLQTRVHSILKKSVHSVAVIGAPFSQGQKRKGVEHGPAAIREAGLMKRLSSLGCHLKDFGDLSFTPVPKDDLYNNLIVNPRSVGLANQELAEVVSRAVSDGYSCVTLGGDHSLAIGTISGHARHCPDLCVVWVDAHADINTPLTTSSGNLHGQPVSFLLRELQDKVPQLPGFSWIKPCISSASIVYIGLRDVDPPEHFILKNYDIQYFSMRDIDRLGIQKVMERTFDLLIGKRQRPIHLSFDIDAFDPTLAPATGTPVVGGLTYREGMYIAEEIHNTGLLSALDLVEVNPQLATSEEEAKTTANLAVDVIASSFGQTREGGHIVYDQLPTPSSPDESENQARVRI
In words: Inhibition of human recombinant ARG2.

In test [5] the target is T2, Arginase-2, mitochondrial. Nature of the test: Inhibition of human recombinant ARG2 extracted from Escherichia coli.
Test [6] has as its target T2, Arginase-2, mitochondrial. Nature of the test: Inhibition of ARG2 (unknown origin).

With `N[C@@H](CCCCC=O)C(=O)O`, on Arginase-1 [1], the Ki is 60 µM.
`CN[C@@H]1C[C@@H]2C[C@@](N)(C(=O)O)[C@@H](CCCB(O)O)[C@@H]2[C@H]1F` registered an IC50 against Arginase-1 [2] of 0.0069 µM.
On Arginase-1 [3], `CC(C)(C)[C@H](N)C(=O)N[C@H]1CN[C@H](C(=O)O)[C@@H]1CCCB(O)O` came in with a half-inhibitory concentration (IC50) of less than 0.001 µM.
With `N[C@@H](CC/C=C/B(O)O)C(=O)O`, the IC50 in test [4] was determined as 15 µM.
For the compound `CN(C)C[C@@H]1CC[C@@H](CCB(O)O)C[C@]1(N)C(=O)O`, the IC50 in test [5] is 0.039 µM.
Regarding `O=C(O)[C@@]1(CCCCB(O)O)CCCN1`, the IC50 in test [6] came out at 0.023 µM; against Arginase-1 [2] it was 0.0147 µM.
In turn, `N[C@@](CCCCB(O)O)(C(=O)O)C1CC(NCCCc2ccccc2)C1` (stereo partly drawn) yielded an IC50 in test [6] of 0.026 µM.
